Test results published in the NIST ThermoML archive (doi:10.1016/j.jct.2016.10.009).

Assay: xn = mol fraction of the nth substance listed
Settings: Liquid, Vibrating tube method

CC(C)OC(C)C [diisopropyl ether] + CCC(C)O
mass density [kg/m3]
Settings | x2 = 0 | x2 = 0.2036 | x2 = 0.3227 | x2 = 0.4464 | x2 = 0.4973 | x2 = 0.6595 | x2 = 0.8482
293.15 K, 110000 kPa | – | – | – | – | – | – | 854.1
293.15 K, 120000 kPa | 808.7 | 818.9 | 825.2 | 832.1 | 835.1 | 845.2 | 858.2
293.15 K, 130000 kPa | 813.2 | 823.4 | 829.6 | 836.4 | 839.3 | 849.3 | 862.1
293.15 K, 140000 kPa | 817.6 | 827.6 | 833.7 | 840.4 | 843.3 | 853.2 | 865.8
298.15 K, 100 kPa | 718.3 | 732.9 | 741.7 | 751.2 | 755.4 | 769.4 | 787.5
298.15 K, 1000 kPa | 719.6 | 734 | 742.8 | 752.2 | 756.4 | 770.3 | 788.3
298.15 K, 5000 kPa | 724.5 | 738.6 | 747.1 | 756.3 | 760.5 | 774.1 | 791.7
298.15 K, 10000 kPa | 730.2 | 743.9 | 752.2 | 761.2 | 765.2 | 778.5 | 795.7
298.15 K, 15000 kPa | 735.6 | 748.8 | 757 | 765.8 | 769.7 | 782.8 | 799.6
298.15 K, 20000 kPa | 740.5 | 753.5 | 761.5 | 770.1 | 773.9 | 786.7 | 803.2
298.15 K, 25000 kPa | 745.2 | 757.9 | 765.7 | 774.2 | 777.9 | 790.5 | 806.6
298.15 K, 30000 kPa | 749.6 | 762.1 | 769.8 | 778.1 | 781.8 | 794.1 | 810
298.15 K, 35000 kPa | 753.7 | 766 | 773.6 | 781.7 | 785.4 | 797.5 | 813.1
298.15 K, 40000 kPa | 757.8 | 769.8 | 777.3 | 785.3 | 788.9 | 800.8 | 816.2
298.15 K, 45000 kPa | 761.6 | 773.4 | 780.8 | 788.7 | 792.2 | 804.1 | 819.2
298.15 K, 50000 kPa | 765.2 | 776.9 | 784.2 | 792 | 795.5 | 807.1 | 822.1
298.15 K, 55000 kPa | 768.8 | 780.3 | 787.5 | 795.2 | 798.6 | 810.1 | 824.9
298.15 K, 60000 kPa | 772.2 | 783.5 | 790.6 | 798.2 | 801.6 | 812.9 | 827.6
298.15 K, 65000 kPa | 775.4 | 786.6 | 793.7 | 801.2 | 804.5 | 815.7 | 830.2
298.15 K, 70000 kPa | 778.6 | 789.7 | 796.6 | 804.1 | 807.4 | 818.5 | 832.8
298.15 K, 80000 kPa | 784.6 | 795.5 | 802.3 | 809.6 | 812.8 | – | –
